# Measurements published in a melting point compilation (Tetko et al.; mined from patent text by program, amines drawn as free bases though some values may be those of a salt).
row,SMILES,melting point [°C]
1,CC(C)(NC(=O)OCc1ccccc1)C(=O)NCCCc1ccccc1,84 to 92
2,CCCCn1nc2c(N)nc3ncccc3c2c1CC(C)(C)O,232 to 235
3,CCOC(=O)c1cn(CC)c2cc(-c3csc(CN(C)C(C)=O)n3)c(F)cc2c1=O,173 to 175
4,CCCCC(=O)Oc1cccc(NC(=O)CC(C)=O)c1,65
5,O=C1Cc2ccccc2N1CC(F)(F)F,155 to 162
6,CC12CCC(C(=O)O)=CC1=CCC1C2CCC2(C)C(C(=O)c3ccccc3)CCC12 (stereo unspecified),222 to 225
7,O=C1CCC(n2cnc(-c3ccc(F)cc3)c2-c2ccnc(O)n2)CC1,236 to 238
8,Cc1nc(-c2ccc(Cl)cc2)n(-c2ccc(S(C)(=O)=O)cc2)n1,184 to 185
9,Cc1cc(C#N)cc(Oc2[nH]c(=O)[nH]c(=O)c2C(C)C)c1,272 to 275
10,N#Cc1nc(Cl)c(Cl)nc1C#N,180 to 182
11,O=C(O)c1cn(C2CC2)c2cc(F)c(F)c(NCc3ccccc3)c2c1=O,214 to 216
12,CC(=O)NCc1cc(C(C)=O)ccc1Cl,93.1 to 93.7
13,CC(C)S(=O)(=O)c1cccc(OS(C)(=O)=O)n1,70.5 to 71.5
14,COC(=O)C(CCSC)N(C(=O)OC(C)(C)C)C(=O)c1ccc(N)cc1 (stereo unspecified),184 to 185
15,CCN1C(=O)C(=O)N(c2c(C)cccc2C)C1=S,103 to 105
16,Cn1ccnc1-c1ccc(/C=C/c2ccccc2F)cc1,60 to 61
17,O=C(NO)c1ccc2c(c1)CCN(C(=O)NCCOc1ccccc1)C2,120 to 123
18,O=C(Cc1ccccc1SCc1ccccc1)Nc1ccccc1,81 to 83
19,Cc1ccc(NCc2ccc(/C=C/C(=O)NO)cc2)cc1Nc1nccc(-c2cccnc2)n1,201 to 205
20,CC(C)CC(=O)Nc1cccc(-c2ccnc3c(-c4ccc(Cl)cc4)cnn23)c1,215 to 217
21,CC1Cc2ccc(Br)cc2C(c2ccc([N+](=O)[O-])cc2)=NN1 (stereo unspecified),125 to 130
22,CCCc1cc2ccc(CC(=O)O)cc2[nH]1,85 to 87
23,Cc1noc(-c2ccc(S(C)(=O)=O)cc2)c1-c1ccc(-c2cscn2)cc1,119
24,COc1ccc(-c2cc(=O)c3cc(OCCCCCN4CCC(O)CC4)ccc3o2)cc1OC,154 to 155
25,Cc1cc2c(cc1C)=NC(=O)N=2,> 360
26,Cc1nc(O)sc1CCCl,151 to 152

row,SMILES,melting point [°C]
1,COc1ccc(-c2[nH]nc3c2C(=O)c2c(NC(=O)Cc4cc(OC)ccc4OC)cccc2-3)cc1,226
2,COC(=O)c1sccc1Oc1ncc(OC)c(OC)n1,107 to 109
3,CC(=S)NC[C@H]1CN(c2ccc(N3CCN(C)C3=O)c(F)c2)C(=O)O1,168
4,CCOC(=O)c1ccc(CNC(N)=O)cc1,173 to 175
5,O=C1CSCC(=O)C1C(=O)Nc1ccc(Cl)c(C(F)(F)F)c1,108 to 110
6,O=C1N(Cc2cccc(O)c2)c2ccccc2C12COc1cc3c(cc12)CCO3 (stereo unspecified),225 to 227
7,CC(=O)OC(Cn1cncn1)(c1ccc(F)cc1F)C1(S(=O)(=O)Cl)CC1 (racemic),163 to 165
8,COc1cc2cc(C(N)=O)cnc2cc1F,231
9,O=c1cc(O)c(Cl)cn1COCc1ccccc1,165 to 167
10,CC(=O)c1ccc(-c2ccc(O)c(F)c2)cc1,155 to 158
11,Cc1nc(N)sc1S(=O)(=O)NCCN(C)C,153
12,CN(C=O)CC1(N(C)C)CCCCC1,59 to 60
13,O=C(O)C1CCc2cc(C3CCCCCC3)c(Cl)cc21 (stereo unspecified),138 to 140
14,CS(=O)(=O)Nc1cc2occ(N)c(=O)c2cc1Oc1ccccc1,162 to 163
15,Cc1ccccc1C(=O)Nc1ccc(C(=O)N2CCCC(n3cccc3)c3ccccc32)cc1 (stereo unspecified),208 to 210
16,CC(=O)NNc1ccc(N=Cc2ccccc2)cc1,172 to 174
17,CS(=O)(=O)c1ccc(-c2cc3c(cc2C(=O)c2cc(F)cc(F)c2)OCCO3)cc1,191 to 193
18,CCNC(=O)c1c(Br)ccc(OC)c1Cl,181 to 182
19,CC(C)(C)OC(=O)n1cc2c(c1C=O)OCCO2,94 to 95
20,O=C(O)c1ccc(-c2nc(-c3cccnc3)cs2)cc1,303 to 304
21,COC(=O)CCCc1cc2cc(Cl)ccc2n1S(=O)(=O)c1ccc2c(c1)CCO2,132 to 137
22,O=C1C(CCO)Oc2cc([N+](=O)[O-])ccc2N1Cc1ccccc1[N+](=O)[O-] (stereo unspecified),139 to 143
23,O=[N+]([O-])c1ccc(C=Cc2ccccc2)cc1,46 to 50
24,OCc1cnc(-c2ccc(Cl)cc2)o1,115 to 116
25,O=C(/C=C/c1ccc(F)cc1)N1CCN2C(=O)OC(c3ccccc3)(c3ccccc3)C2C1 (stereo unspecified),250 to 251
26,CC(C)(C)c1cc(CCCOc2ccccc2NC(=O)NC2CCN(Cc3ccccc3)CC2)cc(C(C)(C)C)c1O,148 to 149

row,SMILES,melting point [°C]
1,CC[C@@]1(C=O)CCCN(CCc2c[nH]c3ccc(OC)cc23)C1=O,108
2,CC1(C(=O)NCCc2cccs2)CCCCC1,79 to 80
3,COc1ccc2c(c1)CCC1=C2CCC2(C)C(O)CCC12 (stereo unspecified),110 to 112
4,CCCCCCCCCCCCCCCCSCC1(CNS(=O)(=O)CCCCl)CCCO1 (stereo unspecified),44.5 to 45.5
5,CN1CC(CO)C=C2c3cccc4[nH]c(Br)c(c34)CC21 (stereo unspecified),193
6,CC(=O)OCC1OC(n2cc(C3=C(c4c[nH]c5ncccc45)C(=O)N(COCc4ccccc4)C3=O)c3ccccc32)C(OC(C)=O)C(OC(C)=O)C1OC(C)=O (stereo unspecified),115 to 117
7,c1cncc(-c2ccc(N3CCCN(c4ccc(-c5cccnc5)cn4)CC3)nc2)c1,210 to 211
8,Cc1cc(NC(=O)CN2CCN(c3ccccc3C#N)CC2)ccc1Br,143 to 145
9,Cc1cc(C)cc(Sc2c(C(C)C)c(=O)[nH]c(=O)n2CC2=CC(CO)C(CO)C2)c1 (stereo unspecified),136 to 137
10,O=Cc1ccc(OC(=O)c2ccccc2)c([N+](=O)[O-])c1,110 to 112
11,N#CC(Nc1ccc(SSc2ccc(NC(C#N)c3ccc(S(N)(=O)=O)cc3)cc2)cc1)c1ccc(S(N)(=O)=O)cc1 (stereo unspecified),251 to 255
12,CC(=O)Nc1ccc2c(c1)C(c1ccccc1F)=NCc1cnc(C)n1-2,326 to 331
13,CCCCC(O)c1cn(C(c2ccccc2)(c2ccccc2)c2ccccc2)cn1 (stereo unspecified),119 to 120
14,Cc1cccc(NC(=O)Nc2ccc(-c3c(C(N)=O)[nH]c4ccccc34)cc2)c1,140 to 142
15,CC(C)(C)OC(=O)N1CCN2C(=O)OC(Cc3ccccc3)(Cc3ccccc3)C2C1 (stereo unspecified),188 to 189
16,CCOC(=NC(=O)c1ccc(Cl)c(Cl)c1)N1Cc2ccccc2-c2ccccc2C1,138
17,O=C(Nc1cccc(-c2ccnc3c(C(=O)c4ccco4)cnn23)c1)c1ccccc1,220 to 222
18,Cn1c(=O)c2c(nc(Cl)n2Cc2ccccc2I)n(C)c1=O,178
19,COc1ccc(COC(=O)Nc2cc(-n3cccn3)nc(-c3ccco3)n2)cc1OC,148
20,COc1ccc(-n2nc(Sc3ccc(OC(F)(F)F)cc3)c(C)c(C#N)c2=O)cc1,165 to 167
21,CCNc1cc(C(=O)O)cc(S(N)(=O)=O)c1Oc1ccccc1,236 to 237
22,CCC(=O)C1=C(O)CC(c2ccc3sccc3c2)CC1=O (stereo unspecified),134
23,O=C(O)c1conc1-c1ccccc1,163 to 164
24,O=C(OC1COC1)c1sccc1OS(=O)(=O)Cl,92 to 94
25,Cc1[nH]cnc1C=C1CCc2c(C)c3ccccc3n2C1=O,252 to 255
26,O=C1CC(c2ccc(Cl)cc2)Oc2ccccc21 (stereo unspecified),96 to 98

row,SMILES,melting point [°C]
1,CCC1(CC)c2cc(-c3nc4ccccc4s3)ccc2-c2ccc(N(c3ccc(O)cc3)c3ccc(O)cc3)cc21,294 to 297
2,COC(=O)CC(c1ccc(F)cc1)C(C(=O)OC)C(=O)OC (stereo unspecified),75 to 76
3,O=C(NCC1CCCCC1)[C@@H]1CCCN(c2cccc3c2C(=O)N(Cc2ccncc2)C3=O)C1,172 to 173
4,CC(C)(C)OC(=O)N1CCN(Cc2ccc3c(c2)-c2[nH]nc(-c4ccsc4)c2C3)CC1,218 to 220
5,CCc1cnc2c(NC(=O)c3c(Cl)cccc3Cl)cccc2c1CCO,180 to 182
6,O=C(NC(Cc1ccccc1)C(=O)O)OCc1ccc(CCCc2ccccc2)cc1 (stereo unspecified),135
7,O=[N+]([O-])c1cc(Cl)cc(Cc2cc(Cl)cc([N+](=O)[O-])c2O)c1O,163 to 170
8,COc1ccc(CNc2cc(Cl)ncc2C(=O)NCc2ncccn2)cc1Cl,134 to 136
9,FC(F)C(F)(F)Sc1nc(-c2ccc(Cl)cc2)c(-c2cccs2)[nH]1,162 to 163
10,COc1cccc(Oc2cccc(NC(=O)c3ccn4c3CSC4c3cccnc3)c2)c1 (stereo unspecified),130
11,CC1(C)OC(=S)Nc2ccc(-c3cncc(Br)c3)cc21,252 to 253
12,Cc1cc(-c2cc(C(F)F)n3ncc(-c4nc(-c5ccc(N)nc5)no4)c3n2)ccc1Cl,243
13,O=[N+]([O-])c1cc2nc(O)c(O)nc2c2nsnc12,> 300
14,FC(F)(F)c1cc(Nc2ccc3[nH]ccc3c2)nc(-c2cccnc2)n1,142 to 143
15,ClCC(CCl)(CCl)c1cc(Cl)nnc1Cl,111 to 112
16,CCCCNC(=O)C1CC(C)(C)NC(C)(C)C1=NO (stereo unspecified),58 to 60
17,CC(=O)OCC(=O)C1CCC2C3CCC4CC(O)C(N5CCOC(C)(C)C5)CC4(C)C3CCC12C (stereo unspecified),174 to 175
18,N#CCC(=O)N[C@H]1CC[C@H](CCN2CCC(c3cccc4c3CCO4)CC2)CC1,194
19,CN(C)c1ccc(C2=NC[C@@H](OC(=O)Nc3ccccc3)[C@H](c3ccccc3)O2)cc1 (racemic),172
20,Cc1nnc(-c2[nH]c3ccccc3c2Cl)o1,267 to 268
21,Cc1ccc(C(=O)c2cccc3c2CCCC3C(=O)O)cc1 (stereo unspecified),102 to 103
22,Cc1cccc(C)c1N=CNc1c(C)cccc1C,174 to 176
23,COC(=O)C=CC(=O)c1cc(Cl)ccc1N,111 to 112
